# In the OligoGym collection:
# Oligonucleotides are written 5' to 3', each unit as a sugar letter and its base; * is a phosphorothioate linkage, no mark a phosphodiester; rarer units and linkages stand in square brackets, end groups in braces. Plain capitals give the bases only. Oligonucleotides are given in HELM: sugar(base)linkage, 5' to 3'; d 2'-deoxyribose, r ribose, m 2'-O-methylribose, p phosphate. ss, as = sense and antisense strand; d = 2'-deoxy (DNA); r = 2'-OH (RNA)
# Target: SOST
# Test: reporter assay of Huesken 2005
# Conditions: siRNA
# Note: test concentration or dose not given here.
row,Substance,normalised inhibition (eCFP-eYFP dual reporter) [%]
1,RNA1{r(G)p.r(G)p.r(A)p.r(C)p.r(C)p.r(G)p.r(A)p.r(G)p.r(G)p.r(C)p.r(C)p.r(G)p.r(C)p.r(U)p.r(C)p.r(G)p.r(G)p.r(C)p.r(C)p.d(T)p.d(T)}|RNA2{r(G)p.r(G)p.r(C)p.r(C)p.r(G)p.r(A)p.r(G)p.r(C)p.r(G)p.r(G)p.r(C)p.r(C)p.r(U)p.r(C)p.r(G)p.r(G)p.r(U)p.r(C)p.r(C)p.d(C)p.d(G)}$$$RNA1{StrandType:ss}|RNA2{StrandType:as}$,50.7
2,RNA1{r(G)p.r(G)p.r(A)p.r(C)p.r(U)p.r(U)p.r(C)p.r(G)p.r(G)p.r(G)p.r(A)p.r(C)p.r(C)p.r(G)p.r(A)p.r(G)p.r(G)p.r(C)p.r(C)p.d(T)p.d(T)}|RNA2{r(G)p.r(G)p.r(C)p.r(C)p.r(U)p.r(C)p.r(G)p.r(G)p.r(U)p.r(C)p.r(C)p.r(C)p.r(G)p.r(A)p.r(A)p.r(G)p.r(U)p.r(C)p.r(C)p.d(T)p.d(T)}$$$RNA1{StrandType:ss}|RNA2{StrandType:as}$,53.8
3,RNA1{r(G)p.r(G)p.r(A)p.r(G)p.r(C)p.r(U)p.r(C)p.r(A)p.r(A)p.r(G)p.r(G)p.r(A)p.r(C)p.r(U)p.r(U)p.r(C)p.r(G)p.r(G)p.r(G)p.d(T)p.d(T)}|RNA2{r(C)p.r(C)p.r(C)p.r(G)p.r(A)p.r(A)p.r(G)p.r(U)p.r(C)p.r(C)p.r(U)p.r(U)p.r(G)p.r(A)p.r(G)p.r(C)p.r(U)p.r(C)p.r(C)p.d(G)p.d(A)}$$$RNA1{StrandType:ss}|RNA2{StrandType:as}$,75
4,RNA1{r(G)p.r(G)p.r(G)p.r(C)p.r(G)p.r(G)p.r(C)p.r(C)p.r(U)p.r(C)p.r(C)p.r(C)p.r(C)p.r(A)p.r(C)p.r(C)p.r(A)p.r(C)p.r(C)p.d(T)p.d(T)}|RNA2{r(G)p.r(G)p.r(U)p.r(G)p.r(G)p.r(U)p.r(G)p.r(G)p.r(G)p.r(G)p.r(A)p.r(G)p.r(G)p.r(C)p.r(C)p.r(G)p.r(C)p.r(C)p.r(C)p.d(T)p.d(C)}$$$RNA1{StrandType:ss}|RNA2{StrandType:as}$,64.3
5,RNA1{r(G)p.r(G)p.r(G)p.r(G)p.r(U)p.r(G)p.r(G)p.r(C)p.r(A)p.r(G)p.r(G)p.r(C)p.r(G)p.r(U)p.r(U)p.r(C)p.r(A)p.r(A)p.r(G)p.d(T)p.d(T)}|RNA2{r(C)p.r(U)p.r(U)p.r(G)p.r(A)p.r(A)p.r(C)p.r(G)p.r(C)p.r(C)p.r(U)p.r(G)p.r(C)p.r(C)p.r(A)p.r(C)p.r(C)p.r(C)p.r(C)p.d(T)p.d(G)}$$$RNA1{StrandType:ss}|RNA2{StrandType:as}$,48.7
6,RNA1{r(G)p.r(G)p.r(U)p.r(G)p.r(A)p.r(G)p.r(G)p.r(C)p.r(G)p.r(C)p.r(C)p.r(G)p.r(C)p.r(G)p.r(C)p.r(G)p.r(C)p.r(G)p.r(C)p.d(T)p.d(T)}|RNA2{r(G)p.r(C)p.r(G)p.r(C)p.r(G)p.r(C)p.r(G)p.r(C)p.r(G)p.r(G)p.r(C)p.r(G)p.r(C)p.r(C)p.r(U)p.r(C)p.r(A)p.r(C)p.r(C)p.d(A)p.d(C)}$$$RNA1{StrandType:ss}|RNA2{StrandType:as}$,26
7,RNA1{r(G)p.r(U)p.r(A)p.r(G)p.r(U)p.r(G)p.r(G)p.r(A)p.r(G)p.r(G)p.r(G)p.r(C)p.r(C)p.r(A)p.r(G)p.r(G)p.r(G)p.r(G)p.r(U)p.d(T)p.d(T)}|RNA2{r(A)p.r(C)p.r(C)p.r(C)p.r(C)p.r(U)p.r(G)p.r(G)p.r(C)p.r(C)p.r(C)p.r(U)p.r(C)p.r(C)p.r(A)p.r(C)p.r(U)p.r(A)p.r(C)p.d(A)p.d(C)}$$$RNA1{StrandType:ss}|RNA2{StrandType:as}$,63.5
8,RNA1{r(G)p.r(U)p.r(G)p.r(C)p.r(C)p.r(G)p.r(C)p.r(A)p.r(G)p.r(C)p.r(G)p.r(C)p.r(C)p.r(A)p.r(A)p.r(G)p.r(C)p.r(C)p.r(G)p.d(T)p.d(T)}|RNA2{r(C)p.r(G)p.r(G)p.r(C)p.r(U)p.r(U)p.r(G)p.r(G)p.r(C)p.r(G)p.r(C)p.r(U)p.r(G)p.r(C)p.r(G)p.r(G)p.r(C)p.r(A)p.r(C)p.d(G)p.d(G)}$$$RNA1{StrandType:ss}|RNA2{StrandType:as}$,49.6
9,RNA1{r(G)p.r(U)p.r(G)p.r(G)p.r(A)p.r(G)p.r(G)p.r(G)p.r(C)p.r(C)p.r(A)p.r(G)p.r(G)p.r(G)p.r(G)p.r(U)p.r(G)p.r(G)p.r(C)p.d(T)p.d(T)}|RNA2{r(G)p.r(C)p.r(C)p.r(A)p.r(C)p.r(C)p.r(C)p.r(C)p.r(U)p.r(G)p.r(G)p.r(C)p.r(C)p.r(C)p.r(U)p.r(C)p.r(C)p.r(A)p.r(C)p.d(T)p.d(A)}$$$RNA1{StrandType:ss}|RNA2{StrandType:as}$,52.8
10,RNA1{r(G)p.r(U)p.r(G)p.r(G)p.r(U)p.r(G)p.r(A)p.r(G)p.r(G)p.r(C)p.r(G)p.r(C)p.r(C)p.r(G)p.r(C)p.r(G)p.r(C)p.r(G)p.r(C)p.d(T)p.d(T)}|RNA2{r(G)p.r(C)p.r(G)p.r(C)p.r(G)p.r(C)p.r(G)p.r(G)p.r(C)p.r(G)p.r(C)p.r(C)p.r(U)p.r(C)p.r(A)p.r(C)p.r(C)p.r(A)p.r(C)p.d(C)p.d(G)}$$$RNA1{StrandType:ss}|RNA2{StrandType:as}$,65.2
11,RNA1{r(G)p.r(U)p.r(G)p.r(U)p.r(C)p.r(C)p.r(C)p.r(G)p.r(G)p.r(U)p.r(G)p.r(G)p.r(U)p.r(G)p.r(A)p.r(G)p.r(G)p.r(C)p.r(G)p.d(T)p.d(T)}|RNA2{r(C)p.r(G)p.r(C)p.r(C)p.r(U)p.r(C)p.r(A)p.r(C)p.r(C)p.r(A)p.r(C)p.r(C)p.r(G)p.r(G)p.r(G)p.r(A)p.r(C)p.r(A)p.r(C)p.d(A)p.d(G)}$$$RNA1{StrandType:ss}|RNA2{StrandType:as}$,62.9
12,RNA1{r(U)p.r(A)p.r(G)p.r(U)p.r(G)p.r(G)p.r(A)p.r(G)p.r(G)p.r(G)p.r(C)p.r(C)p.r(A)p.r(G)p.r(G)p.r(G)p.r(G)p.r(U)p.r(G)p.d(T)p.d(T)}|RNA2{r(C)p.r(A)p.r(C)p.r(C)p.r(C)p.r(C)p.r(U)p.r(G)p.r(G)p.r(C)p.r(C)p.r(C)p.r(U)p.r(C)p.r(C)p.r(A)p.r(C)p.r(U)p.r(A)p.d(C)p.d(A)}$$$RNA1{StrandType:ss}|RNA2{StrandType:as}$,72
13,RNA1{r(U)p.r(C)p.r(A)p.r(A)p.r(G)p.r(A)p.r(A)p.r(U)p.r(G)p.r(A)p.r(U)p.r(G)p.r(C)p.r(C)p.r(A)p.r(C)p.r(G)p.r(G)p.r(A)p.d(T)p.d(T)}|RNA2{r(U)p.r(C)p.r(C)p.r(G)p.r(U)p.r(G)p.r(G)p.r(C)p.r(A)p.r(U)p.r(C)p.r(A)p.r(U)p.r(U)p.r(C)p.r(U)p.r(U)p.r(G)p.r(A)p.d(A)p.d(C)}$$$RNA1{StrandType:ss}|RNA2{StrandType:as}$,68.7
14,RNA1{r(U)p.r(C)p.r(A)p.r(A)p.r(G)p.r(G)p.r(A)p.r(C)p.r(U)p.r(U)p.r(C)p.r(G)p.r(G)p.r(G)p.r(A)p.r(C)p.r(C)p.r(G)p.r(A)p.d(T)p.d(T)}|RNA2{r(U)p.r(C)p.r(G)p.r(G)p.r(U)p.r(C)p.r(C)p.r(C)p.r(G)p.r(A)p.r(A)p.r(G)p.r(U)p.r(C)p.r(C)p.r(U)p.r(U)p.r(G)p.r(A)p.d(G)p.d(C)}$$$RNA1{StrandType:ss}|RNA2{StrandType:as}$,61.3
15,RNA1{r(U)p.r(C)p.r(G)p.r(G)p.r(A)p.r(G)p.r(C)p.r(U)p.r(C)p.r(A)p.r(A)p.r(G)p.r(G)p.r(A)p.r(C)p.r(U)p.r(U)p.r(C)p.r(G)p.d(T)p.d(T)}|RNA2{r(C)p.r(G)p.r(A)p.r(A)p.r(G)p.r(U)p.r(C)p.r(C)p.r(U)p.r(U)p.r(G)p.r(A)p.r(G)p.r(C)p.r(U)p.r(C)p.r(C)p.r(G)p.r(A)p.d(C)p.d(T)}$$$RNA1{StrandType:ss}|RNA2{StrandType:as}$,61.8
16,RNA1{r(U)p.r(C)p.r(G)p.r(G)p.r(C)p.r(C)p.r(G)p.r(C)p.r(G)p.r(G)p.r(C)p.r(A)p.r(A)p.r(G)p.r(U)p.r(G)p.r(G)p.r(U)p.r(G)p.d(T)p.d(T)}|RNA2{r(C)p.r(A)p.r(C)p.r(C)p.r(A)p.r(C)p.r(U)p.r(U)p.r(G)p.r(C)p.r(C)p.r(G)p.r(C)p.r(G)p.r(G)p.r(C)p.r(C)p.r(G)p.r(A)p.d(T)p.d(G)}$$$RNA1{StrandType:ss}|RNA2{StrandType:as}$,66
17,RNA1{r(U)p.r(G)p.r(C)p.r(A)p.r(A)p.r(G)p.r(C)p.r(G)p.r(C)p.r(C)p.r(U)p.r(C)p.r(A)p.r(C)p.r(C)p.r(C)p.r(G)p.r(C)p.r(U)p.d(T)p.d(T)}|RNA2{r(A)p.r(G)p.r(C)p.r(G)p.r(G)p.r(G)p.r(U)p.r(G)p.r(A)p.r(G)p.r(G)p.r(C)p.r(G)p.r(C)p.r(U)p.r(U)p.r(G)p.r(C)p.r(A)p.d(C)p.d(T)}$$$RNA1{StrandType:ss}|RNA2{StrandType:as}$,66.2
18,RNA1{r(U)p.r(G)p.r(C)p.r(G)p.r(G)p.r(C)p.r(C)p.r(C)p.r(G)p.r(G)p.r(C)p.r(G)p.r(C)p.r(G)p.r(C)p.r(C)p.r(U)p.r(G)p.r(C)p.d(T)p.d(T)}|RNA2{r(G)p.r(C)p.r(A)p.r(G)p.r(G)p.r(C)p.r(G)p.r(C)p.r(G)p.r(C)p.r(C)p.r(G)p.r(G)p.r(G)p.r(C)p.r(C)p.r(G)p.r(C)p.r(A)p.d(C)p.d(T)}$$$RNA1{StrandType:ss}|RNA2{StrandType:as}$,52.1
19,RNA1{r(U)p.r(U)p.r(C)p.r(A)p.r(C)p.r(C)p.r(C)p.r(G)p.r(C)p.r(U)p.r(A)p.r(C)p.r(G)p.r(U)p.r(G)p.r(A)p.r(C)p.r(C)p.r(G)p.d(T)p.d(T)}|RNA2{r(C)p.r(G)p.r(G)p.r(U)p.r(C)p.r(A)p.r(C)p.r(G)p.r(U)p.r(A)p.r(G)p.r(C)p.r(G)p.r(G)p.r(G)p.r(U)p.r(G)p.r(A)p.r(A)p.d(G)p.d(T)}$$$RNA1{StrandType:ss}|RNA2{StrandType:as}$,57.5

# Target: UBE2V1
# Test: reporter assay of Huesken 2005
# Conditions: siRNA
row,Substance,normalised inhibition (eCFP-eYFP dual reporter) [%]
1,sense rArArArGrGrArGrUrArArArArGrUrCrCrCrUrCdTdT / antisense rGrArGrGrGrArCrUrUrUrUrArCrUrCrCrUrUrUdGdC,65.6
2,sense rArArArUrUrUrCrArCrUrGrCrArArArGrGrArGdTdT / antisense rCrUrCrCrUrUrUrGrCrArGrUrGrArArArUrUrUdTdC,45.8
3,sense rArArCrCrGrArArUrArUrArCrArGrCrCrUrUrAdTdT / antisense rUrArArGrGrCrUrGrUrArUrArUrUrCrGrGrUrUdTdT,96.1
4,sense rArArCrCrUrArGrArArArArUrUrUrCrArCrUrGdTdT / antisense rCrArGrUrGrArArArUrUrUrUrCrUrArGrGrUrUdCdA,49.4
